These results are taken from paper PMC9241695, “Selective Metal Chelation by a Thiosemicarbazone Derivative Interferes with Mitochondrial Respiration and Ribosome Biogenesis in Candida albicans” (Microbiology Spectrum, 2022).

Molecules are shown by their SMILES. ≈ marks a conversion by molar mass, not a printed value.

For one data set, the system named is C. albicans 28A. Put plainly: Microbroth dilution MIC80. It counts as cell-based. Particulars: Candida albicans, 28A. In outline: (§1)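 CLSI microbroth dilution in RPMI1640 using final drug concentrations of 0.0156–64 μg/mL. C. albicans inoculum was 1 × 10^3 CFU/mL, and Candida plates were incubated at 35°C for 24 h. MIC was read as visible growth inhibition versus the drug-free control, in duplicate.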
Background: In broth dilution the organism is exposed to a series of concentrations in liquid medium.

A further data set concerns C. albicans 28I. Put plainly: Microbroth dilution MIC80. Particulars: Candida albicans, 28I. Format: cell-based. The method in brief:
as §1

A further data set concerns A. fumigatus 1161. As to the kind of experiment: Microbroth dilution MIC80. It counts as cell-based. Particulars: Aspergillus fumigatus, 1161. The method in brief: (§2)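 CLSI microbroth dilution in RPMI1640, inoculum 1 × 10^3 CFU/mL, compounds 0.0156–64 μg/mL final, 24 h at 35 °C. MIC read as visible growth inhibition versus control, in duplicate.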
The next data set concerns C. albicans CA4. Put plainly: Microbroth dilution MIC80. Format: cell-based. Particulars: Candida albicans, CA4. The method in brief:
as §1

The test system of another data set is C. albicans CA1. Put plainly: Microbroth dilution MIC80. It counts as cell-based. Particulars: Candida albicans, CA1. In outline:
as §1

The next data set has as its system C. neoformans 108. Put plainly: Microbroth dilution MIC80. Format: cell-based. Particulars: Cryptococcus neoformans, 108. In outline:
as §2

In the next data set the test system is C. tropicalis CT2. As to the kind of experiment: Microbroth dilution MIC80. Particulars: Candida tropicalis, CT2. It counts as cell-based. In outline: as §2
For another data set, the system named is C. albicans 24g. As to the kind of experiment: Microbroth dilution MIC80. Format: cell-based. Particulars: Candida albicans, 24G. In outline:
as §1

In a further data set the test system is C. albicans YEM13. Put plainly: Microbroth dilution MIC80. It counts as cell-based. Particulars: Candida albicans. In outline:
as §1

Another data set relates to C. albicans DSY654. As to the kind of experiment: Microbroth dilution MIC80. Particulars: Candida albicans. Format: cell-based. In outline:
as §1

The next data set concerns C. albicans 11e. Put plainly: Microbroth dilution MIC80. It counts as cell-based. Particulars: Candida albicans, 11E. The method in brief: as §1
Another data set concerns C. albicans 11f. As to the kind of experiment: Microbroth dilution MIC80. It counts as cell-based. Particulars: Candida albicans, 11F. The method in brief: as §1
The subject of another data set is C. albicans CA3. As to the kind of experiment: Microbroth dilution MIC80. Format: cell-based. Particulars: Candida albicans, CA3. The method in brief: as §1
The next data set relates to C. albicans F5. As to the kind of experiment: Microbroth dilution MIC80. Format: cell-based. Particulars: Candida albicans, F5. The method in brief: as §1
Another data set relates to C. albicans YEM15. Put plainly: Microbroth dilution MIC80. It counts as cell-based. Particulars: Candida albicans, YEM15. The method in brief: as §1
In a further data set the test system is C. albicans 28D. Put plainly: Microbroth dilution MIC80. Particulars: Candida albicans, 28D. Format: cell-based. In outline: as §1
For the next data set, the system named is C. parapsilosis CP001. Put plainly: Microbroth dilution MIC80. Format: cell-based, Candida parapsilosis. Particulars: Lodderomyces parapsilosis, CP001. The method in brief:
as §2

The test system of data set [1] is mammalian cells of 16HBE or HepG2. As to the kind of experiment: CCK-8 reduction assay, mitochondrial dehydrogenase activity. Format: cell-based, human. Particulars: 5 μg/mL, 12 h or 48 h. How it is done: the fluorescent complex […] (CTF) is commonly used to indicate the intensity of microbial respiration. C. albicans SC5314 treated with 19ak was stained with 1 mM CTC for 30 min, followed by flow cytometry analysis of respiratory activity based on fluorescence intensity. Images of cells were obtained using a fluorescence microscope (IX71, Olympus, Tokyo, Japan). The Cell Counting Kit-8 (CCK-8) assay is used to measure the dehydrogenase activity in the mitochondria of C. albicans or mammalian cells. C. albicans SC5314 (5 × 10^6 cells/mL in RPMI1640 medium) were treated with different concentrations of 19ak in 96-well plates at 30°C for 12 h or 48 h. 10 μL of CCK-8 solution was added to each well. After an additional 2 h of incubation, OD450 in each well was detected with a microplate reader. […]
Mitochondrial isolation and detection of mitochondrial respiratory chain complex activity. […] The activities of mitochondrial respiratory chain complexes I-IV were determined by using the Micro Mitochondrial Respiratory Chain Complex Activity Assay Kit (Solarbio, Beijing, China). The concentration of protein was determined using the BCA Protein Assay Kit (Beyotime, Haimen, China).
Mitochondrial complex activity was expressed as nmol/min/mg protein. […]
For orientation: Formazan colour is commonly taken as a measure of viable cells.

The nature of data set [2]: Cytotoxicity testing (MTT). Format: cell-based, human. Particulars: human, HepG2 cells (hepatocellular carcinoma cell line).
Data set [3] deals with human hepatocellular carcinoma cell line HepG2. Put plainly: Cytotoxicity testing (MTT). It counts as cell-based. Particulars: ratio of IC50 against HepG2 to MIC80 against C. albicans SC5314.

Turning to `C/C(=N\NC(=S)N(C)C)c1ccccn1` [Compound 19ak], the MIC80 (as a rule, the lowest concentration that inhibits either 80% of growth or 80% of the strains tested, depending on the study) was determined as 0.125 µg/mL (≈ 0.562 µM) with C. albicans 28A; 0.125 µg/mL (≈ 0.562 µM) in the data set on C. albicans 28I; 0.5 µg/mL (≈ 2.25 µM) against A. fumigatus 1161; 0.125 µg/mL (≈ 0.562 µM) against C. albicans CA4; 0.25 µg/mL (≈ 1.12 µM) in the data set on C. albicans CA1; 0.25 µg/mL (≈ 1.12 µM) in the data set with C. neoformans 108. Besides, the MIC80 in the data set on C. tropicalis CT2 amounted to 0.5 µg/mL (≈ 2.25 µM); against C. albicans 24g, 0.25 µg/mL (≈ 1.12 µM); against C. albicans YEM13, 0.5 µg/mL (≈ 2.25 µM); against C. albicans DSY654, 0.125 µg/mL (≈ 0.562 µM); in the data set on C. albicans 11e, 1 µg/mL (≈ 4.5 µM); in the data set with C. albicans 11f it was 1 µg/mL (≈ 4.5 µM). The MIC80 worked out at 0.125 µg/mL (≈ 0.562 µM) in the data set with C. albicans CA3; 0.5 µg/mL (≈ 2.25 µM) with C. albicans F5; 0.25 µg/mL (≈ 1.12 µM) in the data set with C. albicans YEM15; 0.125 µg/mL (≈ 0.562 µM) against C. albicans 28D; 0.125 µg/mL (≈ 0.562 µM) against C. parapsilosis CP001. In addition, in data set [1], the “Mitochondrial dehydrogenase activity of mammalian cells (CCK-8)” value was “minimal inhibitory effect”. In addition, in [2], the IC50 (usually the concentration that inhibits the measured activity by half) worked out at 10.3 µg/mL (≈ 46.3 µM). The “Selectivity index HepG2” value in data set [3] stood at 82.4.
